From publication PMC5218480 (PLoS ONE, 2017)

System: MV-4-11 cells
Test: Gene expression microarray analysis (Affymetrix PrimeView) and GSEA
Assay type: cell-based, human
Set-up: RFU PODN (11730768_x_at) / Fold change /veh PODN (11730768_x_at) / RFU LINC00158 (11744669_a_at) / Fold change /veh LINC00158 (11744669_a_at) / RFU DUSP10 (11751237_a_at) / Fold change /veh DUSP10 (11751237_a_at) / RFU ID3 (11757404_x_at) / Fold change /veh ID3 (11757404_x_at) / RFU PLEKHG5 (11737974_s_at) / Fold change /veh PLEKHG5 (11737974_s_at) / RFU LRRC4B (11730491_at) / Fold change /veh LRRC4B (11730491_at) / RFU GIMAP4 (11747438_a_at) / Fold change /veh GIMAP4 (11747438_a_at) / RFU KRT8 (11758183_x_at) / Fold change /veh KRT8 (11758183_x_at) / RFU CNN1 (11734310_a_at) / Fold change /veh CNN1 (11734310_a_at) / RFU VPS37D (11726825_at) / Fold change /veh VPS37D (11726825_at) / RFU C10orf10 (11716522_x_at) / Fold change /veh C10orf10 (11716522_x_at) / RFU KIR2DL2 /// KIR2DL4 /// KIR2DL5A /// KIR2DL5B /// KIR2DS1 /// KIR2DS2 /// KIR2DS3 /// KIR2DS4 /// KIR3DL3 /// KIR3DL3 /// KIR3DS1 (11738374_at) / Fold change /veh KIR2DL2 /// KIR2DL4 /// KIR2DL5A /// KIR2DL5B /// KIR2DS1 /// KIR2DS2 /// KIR2DS3 /// KIR2DS4 /// KIR3DL3 /// KIR3DL3 /// KIR3DS1 (11738374_at) / RFU C1QL1 (11718748_at) / Fold change /veh C1QL1 (11718748_at) / RFU TMPRSS4 (11747572_a_at) / Fold change /veh TMPRSS4 (11747572_a_at) / RFU HAMP (11756126_x_at) / Fold change /veh HAMP (11756126_x_at) / RFU RNFT2 (11725882_a_at) / Fold change /veh RNFT2 (11725882_a_at) / RFU NR4A2 (11747474_a_at) / Fold change /veh NR4A2 (11747474_a_at) / RFU ABCC12 (11746883_a_at) / Fold change /veh ABCC12 (11746883_a_at) / RFU TMEM136 (11760407_x_at) / Fold change /veh TMEM136 (11760407_x_at) / RFU CLDN22 /// WWC2 (11732394_at) / Fold change /veh CLDN22 /// WWC2 (11732394_at) / RFU HLA-DPB1 (11760878_x_at) / Fold change /veh HLA-DPB1 (11760878_x_at) / RFU SPINT1 (11716480_a_at) / Fold change /veh SPINT1 (11716480_a_at) / RFU GAP43 (11754022_s_at) / Fold change /veh GAP43 (11754022_s_at) / RFU A4GNT (11735810_at) / Fold change /veh A4GNT (11735810_at) / RFU PRB3 (11715151_x_at) / Fold change /veh PRB3 (11715151_x_at) / RFU TUBB4B (11761932_at) / Fold change /veh TUBB4B (11761932_at) / RFU CAPN14 (11732068_a_at) / Fold change /veh CAPN14 (11732068_a_at) / RFU TMCC2 (11721928_a_at) / Fold change /veh TMCC2 (11721928_a_at) / RFU IRGQ (11745062_a_at) / Fold change /veh IRGQ (11745062_a_at) / RFU FAM174B (11720279_a_at) / Fold change /veh FAM174B (11720279_a_at) / RFU TMPRSS4 (11748680_a_at) / Fold change /veh TMPRSS4 (11748680_a_at) / RFU FAM212B (11763350_a_at) / Fold change /veh FAM212B (11763350_a_at) / RFU PLEKHG5 (11743358_a_at) / Fold change /veh PLEKHG5 (11743358_a_at) / RFU ZSCAN30 (11745921_a_at) / Fold change /veh ZSCAN30 (11745921_a_at) / RFU CMKLR1 (11741424_a_at) / Fold change /veh CMKLR1 (11741424_a_at) / RFU LOC101060620 /// MAPK8IP1 (11723275_at) / Fold change /veh LOC101060620 /// MAPK8IP1 (11723275_at) / RFU SPTSSB (11747773_x_at) / Fold change /veh SPTSSB (11747773_x_at) / RFU PRSS12 (11739890_at) / Fold change /veh PRSS12 (11739890_at) / RFU BIN1 (11741810_x_at) / Fold change /veh BIN1 (11741810_x_at) / RFU WNT11 (11732464_a_at) / Fold change /veh WNT11 (11732464_a_at) / RFU C10orf10 (11716521_a_at) / Fold change /veh C10orf10 (11716521_a_at) / RFU C5orf56 (11738089_at) / Fold change /veh C5orf56 (11738089_at) / RFU CYB561 (11721691_x_at) / Fold change /veh CYB561 (11721691_x_at) / RFU ANKRD19P (11752326_a_at) / Fold change /veh ANKRD19P (11752326_a_at) / RFU OR2T12 /// OR2T33 /// OR2T8 (11738714_s_at) / Fold change /veh OR2T12 /// OR2T33 /// OR2T8 (11738714_s_at) / RFU VCAN (11748164_a_at) / Fold change /veh VCAN (11748164_a_at) / RFU JSRP1 (11732532_at) / Fold change /veh JSRP1 (11732532_at) / RFU KRTAP10-11 (11738290_x_at) / Fold change /veh KRTAP10-11 (11738290_x_at) / RFU MYO3A (11730013_a_at) / Fold change /veh MYO3A (11730013_a_at) / RFU EBF3 (11725865_a_at) / Fold change /veh EBF3 (11725865_a_at) / RFU CAMK2N1 (11719241_x_at) / Fold change /veh CAMK2N1 (11719241_x_at) / RFU C5orf56 (11738088_a_at) / Fold change /veh C5orf56 (11738088_a_at) / RFU OLFML3 (11715873_a_at) / Fold change /veh OLFML3 (11715873_a_at) / RFU LOC100653217 /// NTM (11731650_a_at) / Fold change /veh LOC100653217 /// NTM (11731650_a_at) / RFU MAPK11 (11762145_a_at) / Fold change /veh MAPK11 (11762145_a_at) / RFU FIZ1 (11724087_x_at) / Fold change /veh FIZ1 (11724087_x_at) / RFU OASL (11726364_x_at) / Fold change /veh OASL (11726364_x_at) / RFU SOX15 (11748057_x_at) / Fold change /veh SOX15 (11748057_x_at) / RFU CD79A (11719716_a_at) / Fold change /veh CD79A (11719716_a_at) / RFU HIST1H1D (11736915_at) / Fold change /veh HIST1H1D (11736915_at) / RFU CASKIN2 (11723855_a_at) / Fold change /veh CASKIN2 (11723855_a_at) / RFU LOC730098 (11760151_x_at) / Fold change /veh LOC730098 (11760151_x_at) / RFU OR4N2 (11742367_at) / Fold change /veh OR4N2 (11742367_at) / RFU PRRT2 (11749266_a_at) / Fold change /veh PRRT2 (11749266_a_at) / RFU SNX32 (11753110_a_at) / Fold change /veh SNX32 (11753110_a_at) / RFU CDHR5 (11726645_a_at) / Fold change /veh CDHR5 (11726645_a_at) / RFU RCAN1 (11760418_a_at) / Fold change /veh RCAN1 (11760418_a_at) / RFU FAM167A (11723789_a_at) / Fold change /veh FAM167A (11723789_a_at) / RFU FAM26E (11764081_at) / Fold change /veh FAM26E (11764081_at) / RFU ISYNA1 (11749810_s_at) / Fold change /veh ISYNA1 (11749810_s_at) / RFU ACY1 (11761880_at) / Fold change /veh ACY1 (11761880_at) / RFU 11764098_at / Fold change /veh 11764098_at / RFU SAMD14 (11745864_x_at) / Fold change /veh SAMD14 (11745864_x_at) / RFU NPB (11741838_a_at) / Fold change /veh NPB (11741838_a_at) / RFU TMPRSS6 (11731388_a_at) / Fold change /veh TMPRSS6 (11731388_a_at) / RFU KRTAP10-2 (11738614_at) / Fold change /veh KRTAP10-2 (11738614_at) / RFU ARHGAP8 /// PRR5-ARHGAP8 (11727945_x_at) / Fold change /veh ARHGAP8 /// PRR5-ARHGAP8 (11727945_x_at) / RFU KRTAP5-7 /// NADSYN1 (11734609_at) / Fold change /veh KRTAP5-7 /// NADSYN1 (11734609_at) / RFU RASL12 (11751679_a_at) / Fold change /veh RASL12 (11751679_a_at) / RFU CDKN2B (11736163_a_at) / Fold change /veh CDKN2B (11736163_a_at) / RFU PRF1 (11729649_at) / Fold change /veh PRF1 (11729649_at) / RFU, ZNF638 /// ZNF638-IT1 / Fold change vs veh, ZNF638 /// ZNF638-IT1 / RFU, PANK3 / Fold change vs veh, PANK3 / RFU, SH3YL1 / Fold change vs veh, SH3YL1 / RFU, ZEB2 / Fold change vs veh, ZEB2 / RFU, NRIP1 / Fold change vs veh, NRIP1 / RFU, PTTG1IP / Fold change vs veh, PTTG1IP / RFU, CAPN2 / Fold change vs veh, CAPN2 / RFU, MED14 / Fold change vs veh, MED14 / RFU, SNORA58 / Fold change vs veh, SNORA58 / RFU, C1orf63 / Fold change vs veh, C1orf63 / RFU, LRRFIP1 / Fold change vs veh, LRRFIP1 / RFU, NDUFAF7 / Fold change vs veh, NDUFAF7 / RFU, SLC12A2 / Fold change vs veh, SLC12A2 / RFU, IBTK / Fold change vs veh, IBTK / RFU, ESF1 / Fold change vs veh, ESF1 / Fold change vs veh, TMEM50B / RFU, TAOK1 / Fold change vs veh, TAOK1 / RFU, ACBD3 / Fold change vs veh, ACBD3 / RFU, TMA16 / Fold change vs veh, TMA16 / RFU, RWDD3 / Fold change vs veh, RWDD3 / RFU, BCAT1 / Fold change vs veh, BCAT1 / RFU, EDEM3 / Fold change vs veh, EDEM3 / RFU, TMEM33 / Fold change vs veh, TMEM33 / RFU, WDR75 / Fold change vs veh, WDR75 / RFU, AHCTF1 / Fold change vs veh, AHCTF1 / RFU, TFRC / Fold change vs veh, TFRC / RFU, ZDHHC17 / Fold change vs veh, ZDHHC17 / RFU, NOM1 / Fold change vs veh, NOM1 / RFU, ARL8B / Fold change vs veh, ARL8B / RFU, ZBTB11 / Fold change vs veh, ZBTB11 / RFU, TAMM41 / Fold change vs veh, TAMM41 / RFU, KIAA1704 /// LOC100996395 / Fold change vs veh, KIAA1704 /// LOC100996395 / RFU, ING1 / Fold change vs veh, ING1 / RFU, TRMT61B / Fold change vs veh, TRMT61B / RFU, FUBP3 / Fold change vs veh, FUBP3 / RFU, TP53 / Fold change vs veh, TP53 / RFU, TNKS2 / Fold change vs veh, TNKS2 / RFU, ZFP14 / Fold change vs veh, ZFP14 / RFU, ACTR2 / Fold change vs veh, ACTR2 / RFU, PPP3R1 / Fold change vs veh, PPP3R1 / RFU, PIK3R1 / Fold change vs veh, PIK3R1 / RFU, HNRNPA1 / Fold change vs veh, HNRNPA1 / RFU, RNF170 / Fold change vs veh, RNF170 / RFU, ZNF28 / Fold change vs veh, ZNF28 / RFU, RNGTT / Fold change vs veh, RNGTT / RFU, OGT / Fold change vs veh, OGT / RFU, BRD1 / Fold change vs veh, BRD1 / RFU, MARS / Fold change vs veh, MARS / RFU, ZNF655 / Fold change vs veh, ZNF655 / RFU, FAHD1 / Fold change vs veh, FAHD1 / RFU, BDP1 / Fold change vs veh, BDP1 / RFU, LRRCC1 / Fold change vs veh, LRRCC1 / RFU, ARID1A / Fold change vs veh, ARID1A / RFU, ZNF146 / Fold change vs veh, ZNF146 / RFU, ZNF330 / Fold change vs veh, ZNF330 / RFU, GPN3 / Fold change vs veh, GPN3 / RFU, C9orf123 / Fold change vs veh, C9orf123 / RFU, N4BP2L2 / Fold change vs veh, N4BP2L2 / RFU, ARFIP1 / Fold change vs veh, ARFIP1 / RFU, FAM179B / Fold change vs veh, FAM179B / RFU, BCL10 / Fold change vs veh, BCL10 / RFU, UHRF1BP1L / Fold change vs veh, UHRF1BP1L / RFU, BET1 / Fold change vs veh, BET1 / RFU, CNOT2 / Fold change vs veh, CNOT2 / RFU, ZNF268 / Fold change vs veh, ZNF268 / Fold change vs veh, ZNF507 / RFU, DGCR2 / Fold change vs veh, DGCR2 / RFU, WDSUB1 / Fold change vs veh, WDSUB1 / Fold change vs veh, HSP90B1 /// MIR3652 / RFU, ADSS / Fold change vs veh, ADSS / RFU, GK / Fold change vs veh, GK / RFU, ZNF148 / Fold change vs veh, ZNF148 / RFU, TAF9 / Fold change vs veh, TAF9 / RFU, SLC1A5 / Fold change vs veh, SLC1A5 / RFU, SLMO2 / Fold change vs veh, SLMO2 / RFU, ABCC4 / Fold change vs veh, ABCC4 / RFU, LOC101060439 /// RAP1B / Fold change vs veh, LOC101060439 /// RAP1B / RFU, RFX7 / Fold change vs veh, RFX7 / RFU, GTPBP10 / Fold change vs veh, GTPBP10 / RFU, CNEP1R1 / Fold change vs veh, CNEP1R1 / RFU, BIVM-ERCC5 /// ERCC5 / Fold change vs veh, BIVM-ERCC5 /// ERCC5 / RFU, ILF3 / Fold change vs veh, ILF3 / RFU 11762660_at / Fold change /veh 11762660_at / RFU VCAN (11757783_s_at) / Fold change /veh VCAN (11757783_s_at) / RFU DDX43 (11728927_at) / Fold change /veh DDX43 (11728927_at) / RFU KRT8 (11758188_x_at) / Fold change /veh KRT8 (11758188_x_at) / RFU NKD1 (11759106_at) / Fold change /veh NKD1 (11759106_at) / RFU SRD5A1 (11742802_a_at) / Fold change /veh SRD5A1 (11742802_a_at) / RFU TPSAB1 /// TPSB2 (11721975_s_at) / Fold change /veh TPSAB1 /// TPSB2 (11721975_s_at) / RFU GSTM3 (11746129_a_at) / Fold change /veh GSTM3 (11746129_a_at) / RFU IL23R (11737362_x_at) / Fold change /veh IL23R (11737362_x_at) / RFU TMEM51 (11727254_a_at) / Fold change /veh TMEM51 (11727254_a_at) / RFU PIWIL2 (11732686_x_at) / Fold change /veh PIWIL2 (11732686_x_at) / RFU ORM1 (11744905_x_at) / Fold change /veh ORM1 (11744905_x_at) / RFU CCDC152 (11743942_at) / Fold change /veh CCDC152 (11743942_at) / RFU ECM1 (11717891_a_at) / Fold change /veh ECM1 (11717891_a_at) / RFU IL23R (11748794_a_at) / Fold change /veh IL23R (11748794_a_at) / RFU TNFAIP8L3 (11732012_x_at) / Fold change /veh TNFAIP8L3 (11732012_x_at) / RFU MBOAT4 (11741988_at) / Fold change /veh MBOAT4 (11741988_at) / RFU 11764193_at / Fold change /veh 11764193_at / RFU TMEM53 (11763286_at) / Fold change /veh TMEM53 (11763286_at) / RFU MAGEB2 (11727129_at) / Fold change /veh MAGEB2 (11727129_at) / RFU TMEM200A (11744735_a_at) / Fold change /veh TMEM200A (11744735_a_at) / RFU CCDC152 (11751479_a_at) / Fold change /veh CCDC152 (11751479_a_at) / RFU FAM211A (11726209_a_at) / Fold change /veh FAM211A (11726209_a_at) / RFU RGS16 (11746705_a_at) / Fold change /veh RGS16 (11746705_a_at) / RFU VCAN (11755009_s_at) / Fold change /veh VCAN (11755009_s_at) / RFU RHOB (11743442_s_at) / Fold change /veh RHOB (11743442_s_at) / RFU RGS16 (11720943_a_at) / Fold change /veh RGS16 (11720943_a_at) / RFU RGS16 (11720944_at) / Fold change /veh RGS16 (11720944_at) / RFU, VPS4B / Fold change vs veh, VPS4B / RFU, CREB1 / Fold change vs veh, CREB1 / RFU, DNAJC13 / Fold change vs veh, DNAJC13 / RFU, GNAQ / Fold change vs veh, GNAQ / RFU, CDK5R1 / Fold change vs veh, CDK5R1 / RFU, ZRANB3 / Fold change vs veh, ZRANB3 / RFU, CUL4A / Fold change vs veh, CUL4A / RFU, CCNY / Fold change vs veh, CCNY / RFU, UFL1 / Fold change vs veh, UFL1 / RFU, COG3 / Fold change vs veh, COG3 / RFU, DIAPH2 / Fold change vs veh, DIAPH2 / RFU, SKA2 / Fold change vs veh, SKA2 / RFU, AFF3 / Fold change vs veh, AFF3 / RFU, LMF1 / Fold change vs veh, LMF1 / RFU, IPO11 / Fold change vs veh, IPO11 / RFU, DFFB / Fold change vs veh, DFFB / RFU, FOXP1 / Fold change vs veh, FOXP1 / RFU, CARD8 / Fold change vs veh, CARD8 / RFU, STRN3 / Fold change vs veh, STRN3 / RFU, ADK / Fold change vs veh, ADK / RFU, RASSF2 / Fold change vs veh, RASSF2 / RFU, WIPF1 / Fold change vs veh, WIPF1 / RFU, LARP1B / Fold change vs veh, LARP1B / RFU, RASA1 / Fold change vs veh, RASA1 / RFU, RB1 / Fold change vs veh, RB1 / RFU, PPFIA1 / Fold change vs veh, PPFIA1 / RFU, MAT2A / Fold change vs veh, MAT2A / RFU, CCT5 / Fold change vs veh, CCT5 / RFU, WDR92 / Fold change vs veh, WDR92 / RFU, CUX1 / Fold change vs veh, CUX1 / RFU, TTC7A / Fold change vs veh, TTC7A / RFU, TMEM135 / Fold change vs veh, TMEM135 / RFU, DEPTOR / Fold change vs veh, DEPTOR / RFU, CPM / Fold change vs veh, CPM / RFU, DNAJB6 / Fold change vs veh, DNAJB6 / RFU, CACNA2D3 / Fold change vs veh, CACNA2D3 / RFU, DTX4 / Fold change vs veh, DTX4 / RFU, TFCP2 / Fold change vs veh, TFCP2 / RFU, GMCL1 /// GMCL1P1 / Fold change vs veh, GMCL1 /// GMCL1P1 / RFU, AEBP2 / Fold change vs veh, AEBP2 / RFU, SNHG1 /// SNORD22 /// SNORD25 /// SNORD26 /// SNORD27 /// SNORD28 /// SNORD29 /// SNORD31 / Fold change vs veh, SNHG1 /// SNORD22 /// SNORD25 /// SNORD26 /// SNORD27 /// SNORD28 /// SNORD29 /// SNORD31 / Fold change (Aza/veh), C12orf56 (ProbeSet 11735607_a_at) / Fold change (ACY-1035/veh), C12orf56 (ProbeSet 11735607_a_at) / Fold change (Aza/veh), FGFR1OP (ProbeSet 11751329_s_at) / Fold change (ACY-1035/veh), FGFR1OP (ProbeSet 11751329_s_at) / Fold change (Aza/veh), VPS36 (ProbeSet 11739960_a_at) / Fold change (ACY-1035/veh), VPS36 (ProbeSet 11739960_a_at) / RFU SYPL1 (11715823_x_at) / Fold change /veh SYPL1 (11715823_x_at) / RFU IGFBP7 (11715501_s_at) / Fold change /veh IGFBP7 (11715501_s_at) / RFU REEP3 (11722064_at) / Fold change /veh REEP3 (11722064_at) / RFU IGLL1 (11728026_x_at) / Fold change /veh IGLL1 (11728026_x_at): dose or concentration left out as unconfirmed
Details: ProbeSet 11747888_a_at; LIST D

Structure (SMILES): Nc1ncn([C@@H]2O[C@H](CO)[C@@H](O)[C@H]2O)c(=O)n1 [azacitidine]
- Fold change vs veh, SH3YL1: 0.79
